Earlier results in patent US20050282843A1, “Therapeutic applications of 2-substituted 4-heteroarylpyrimidines” (priority 2002, published 2005).

System: GSK3
Details: known CDK inhibitors; cited from earlier work

SMILES: CC[C@H](CO)Nc1nc(NCc2ccccc2)c2ncn(C(C)C)c2n1 [roscovitine]
- inhibition of GSK3 (literature statement): do not inhibit GSK3
